Biological target: T1, cloned human V1a receptor (Homo sapiens, UniProt P37288)
T1 construct: host or cells: human brain astrocytoma 1321N1 cells
Assay: in vitro functional calcium mobilisation assay (FLIPR), antagonist activity, 1321N1 cells, 250 pM AVP
Type: cell-based
Settings: functional pKi derived from pIC50 (Equation 1), FLIPR Ca2+ mobilisation, 1321N1 cells expressing cloned human V1a receptor, read-out: Mean fpKi (Human V1a) (converted)
Description: The primary assay which may be used to determine the ability of the compounds of formula (1) to inhibit the vasopressin V1a receptor is an in vitro functional calcium mobilisation assay (FLIPR) that measures antagonist activity at a cloned human V1a receptor. The assay is described below.
The antagonist activity of compounds of formula (1) were determined in a Calcium (Ca2+) mobilisation assay using whole cells (human brain astrocytoma 1321N1 cells, ex Perkin Elmer) genetically modified to stably express a cloned human V1a receptor. Dose response curves were determined by displacement of a single concentration of agonist (250 pM AVP, ex Sigma) with increasing concentrations of compound. A pIC50 value is determined by non-linear regression to a 4-parameter logistic equation and a functional pKi (fpKi) derived using Equation 1.
where A=agonist single conc, and A50=the agonist EC50.

T1 sequence (P37288 whole entry): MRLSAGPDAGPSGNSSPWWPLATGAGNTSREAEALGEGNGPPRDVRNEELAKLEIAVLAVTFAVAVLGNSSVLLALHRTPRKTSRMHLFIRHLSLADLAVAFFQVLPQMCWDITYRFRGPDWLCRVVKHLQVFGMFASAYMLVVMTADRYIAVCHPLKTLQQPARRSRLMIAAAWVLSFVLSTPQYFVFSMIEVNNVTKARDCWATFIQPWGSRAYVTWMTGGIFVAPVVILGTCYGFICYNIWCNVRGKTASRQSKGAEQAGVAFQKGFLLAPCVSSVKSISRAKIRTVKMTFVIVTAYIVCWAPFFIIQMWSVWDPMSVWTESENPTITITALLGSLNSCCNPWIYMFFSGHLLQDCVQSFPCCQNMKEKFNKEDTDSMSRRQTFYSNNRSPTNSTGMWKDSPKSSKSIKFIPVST

Ki [nM] | Compound
141 | Cn1ncc2c1Nc1ccccc1N(C(=O)C1CCN(c3ncccn3)CC1)C2 [Example 98]
145 | Cn1ncc2c1Nc1cc(F)ccc1N(C(=O)C1CCN(c3ncccn3)CC1)C2 [Example 100]
151 | Cc1ccc2c(c1)Nc1c(cnn1C)CN2C(=O)C1CCN(c2ncccn2)CC1 [Example 102]
75.9 | Cn1ncc2c1Nc1cc(Cl)ccc1N(C(=O)C1CCN(c3ncccn3)CC1)C2 [Example 103, (6-Chloro-3-methyl-4,10-dihydro-3H-2,3,4,9-tetraaza-benzo[f]azulen-9-yl)-(1-pyrimidin-2-yl-piperidin-4-yl)-methanone]
12.6 | Cn1ncc2c1Nc1ccccc1N(C(=O)C1CCN(c3ccccn3)CC1)C2 [Example 106]
12.9 | Cc1ccc2c(c1)Nc1c(cnn1C)CN2C(=O)C1CCN(c2ccccn2)CC1 [Example 109]
4.57 | Cc1ccc2c(c1)Nc1c(cnn1C)CN2C(=O)C1CCN(c2ncccc2C)CC1 [Example 110]
2.4 | Cc1ccnc(N2CCC(C(=O)N3Cc4cnn(C)c4Nc4cc(C)ccc43)CC2)c1 [Example 111]
2.82 | Cc1ccc(N2CCC(C(=O)N3Cc4cnn(C)c4Nc4cc(C)ccc43)CC2)nc1 [Example 112]
30.2 | COc1cccnc1N1CCC(C(=O)N2Cc3cnn(C)c3Nc3cc(C)ccc32)CC1 [Example 113]
6.92 | Cn1ncc2c1Nc1cc(Cl)ccc1N(C(=O)C1CCN(c3ccccn3)CC1)C2 [Example 115]
2.69 | Cc1cccnc1N1CCC(C(=O)N2Cc3cnn(C)c3Nc3cc(Cl)ccc32)CC1 [Example 116]
2 | Cc1ccnc(N2CCC(C(=O)N3Cc4cnn(C)c4Nc4cc(Cl)ccc43)CC2)c1 [Example 117]
1.74 | Cc1ccc(N2CCC(C(=O)N3Cc4cnn(C)c4Nc4cc(Cl)ccc43)CC2)nc1 [Example 118]
19.1 | COc1cccnc1N1CCC(C(=O)N2Cc3cnn(C)c3Nc3cc(Cl)ccc32)CC1 [Example 119]
0.912 | CCn1ncc2c1Nc1cc(Cl)ccc1N(C(=O)C1CCN(c3ncccc3C)CC1)C2 [Example 120]
0.427 | CCn1ncc2c1Nc1cc(Cl)ccc1N(C(=O)C1CCN(c3cc(C)ccn3)CC1)C2 [Example 121]
9.55 | Cc1ccc2c(c1)Nc1c(cnn1C)CN2C(=O)C1CCN(c2cccc(C)n2)CC1 [Example 124]
5.89 | Cc1cccc(N2CCC(C(=O)N3Cc4cnn(C)c4Nc4cc(Cl)ccc43)CC2)n1 [Example 125]
2 | Cc1ccc2c(c1)Nc1c(cnn1C)CN2C(=O)C1CCN(c2ccccc2F)CC1 [Example 127]
1.32 | Cc1cccc(N2CCC(C(=O)N3Cc4cnn(C)c4Nc4cc(C)ccc43)CC2)c1 [Example 128]
0.324 | Cc1ccc(N2CCC(C(=O)N3Cc4cnn(C)c4Nc4cc(C)ccc43)CC2)cc1 [Example 129]
3.09 | COc1ccc(N2CCC(C(=O)N3Cc4cnn(C)c4Nc4cc(C)ccc43)CC2)cc1 [Example 131]
0.741 | CCc1ccc(N2CCC(C(=O)N3Cc4cnn(C)c4Nc4cc(C)ccc43)CC2)cc1 [Example 132]
5.37 | Cc1ccc2c(c1)Nc1c(cnn1C)CN2C(=O)C1CCN(c2ccc(C(F)(F)F)cc2)CC1 [Example 133]
1.29 | Cc1cccc(N2CCC(C(=O)N3Cc4cnn(C)c4Nc4cc(Cl)ccc43)CC2)c1 [Example 135]
0.617 | Cc1ccc(N2CCC(C(=O)N3Cc4cnn(C)c4Nc4cc(Cl)ccc43)CC2)cc1 [Example 136]
5.13 | Cc1ccc2c(c1)Nc1c(cnn1C)CN2C(=O)C1CCN(c2ccc(C)nc2)CC1 [Example 141]
2.88 | Cc1ccc(N2CCC(C(=O)N3Cc4cnn(C)c4Nc4cc(Cl)ccc43)CC2)cn1 [Example 142]

The next lines start with the compound.

Compound | Ki [nM]
COc1ccccc1N1CCC(C(=O)N2CCc3nc(C)[nH]c3-c3cc(Cl)ccc32)CC1 [Example 92] | 22.9
COc1cccc(N2CCC(C(=O)N3CCc4nc(C)[nH]c4-c4cc(Cl)ccc43)CC2)c1 [Example 93] | 2.51
COc1ccc(N2CCC(C(=O)N3CCc4nc(C)[nH]c4-c4cc(Cl)ccc43)CC2)cc1 [Example 94] | 16.2
CCc1ccc(N2CCC(C(=O)N3CCc4nc(C)[nH]c4-c4cc(Cl)ccc43)CC2)cc1 [Example 95] | 3.16
CCCc1ccc(N2CCC(C(=O)N3CCc4nc(C)[nH]c4-c4cc(Cl)ccc43)CC2)cc1 [Example 96] | 13.5
Cc1nc2c([nH]1)-c1cc(Cl)ccc1N(C(=O)C1CCN(c3ccc(C(C)C)cc3)CC1)CC2 [Example 97] | 22.4
O=C(C1CCN(c2nccc(C(F)(F)F)n2)CC1)N1Cc2cnn(C3CCCCC3)c2Nc2ccccc21 [Example 99] | 35.5
CCn1ncc2c1Nc1cc(F)ccc1N(C(=O)C1CCN(c3nccc(C(F)(F)F)n3)CC1)C2 [Example 101, (3-Ethyl-6-fluoro-4,10-dihydro-3H-2,3,4,9-tetraaza-benzo[f]azulen-9-yl)-[1-(4-trifluoromethyl-pyrimidin-2-yl)-piperidin-4-yl]-methanone] | 575
O=C(C1CCN(c2ncccn2)CC1)N1Cc2cnn(-c3ccccc3)c2Nc2cc(Cl)ccc21 [Example 104] | 14.1
CCc1cnc(N2CCC(C(=O)N3Cc4cnn(-c5ccccc5)c4Nc4cc(Cl)ccc43)CC2)nc1 [Example 105] | 13.8
CCn1ncc2c1Nc1cc(F)ccc1N(C(=O)C1CCN(c3ccc(C)cn3)CC1)C2 [Example 107] | 1.91
Cc1ccc(N2CCC(C(=O)N3Cc4cnn(C(C)(C)C)c4Nc4cc(F)ccc43)CC2)nc1 [Example 108] | 5.37
Cc1ccc(N2CCC(C(=O)N3Cc4cnn(Cc5ccccc5)c4Nc4cc(C)ccc43)CC2)nc1 [Example 114] | 20
CCn1ncc2c1Nc1cc(Cl)ccc1N(C(=O)C1CCN(c3ccc(C)cn3)CC1)C2 [Example 122] | 0.603
Cc1ccc(N2CCC(C(=O)N3Cc4cnn(-c5ccccc5)c4Nc4cc(Cl)ccc43)CC2)nc1 [Example 123] | 2
CCn1ncc2c1Nc1cc(Cl)ccc1N(C(=O)C1CCN(c3cccc(C)n3)CC1)C2 [Example 126] | 1.2
Cn1ncc2c1Nc1cc(Cl)ccc1N(C(=O)C1CCN(c3ccccc3F)CC1)C2 [Example 134] | 1.74
COc1cccc(N2CCC(C(=O)N3Cc4cnn(C)c4Nc4cc(Cl)ccc43)CC2)c1 [Example 137] | 1.78
COc1ccc(N2CCC(C(=O)N3Cc4cnn(C)c4Nc4cc(Cl)ccc43)CC2)cc1 [Example 138] | 2.63
CCc1ccc(N2CCC(C(=O)N3Cc4cnn(C)c4Nc4cc(Cl)ccc43)CC2)cc1 [Example 139] | 0.912
Cn1ncc2c1Nc1cc(Cl)ccc1N(C(=O)C1CCN(c3ccc(C(F)(F)F)cc3)CC1)C2 [Example 140] | 8.51
O=C(C1CCN(c2ncccn2)CC1)N1Cc2cccn2Cc2ccccc21 [Example 143] | 117
O=C(C1CCN(c2ccccn2)CC1)N1Cc2cccn2Cc2ccccc21 [Example 144] | 3.16
Cc1ccc(N2CCC(C(=O)N3Cc4cccn4Cc4ccccc43)CC2)nc1 [Example 145] | 15.1
O=C(C1CCN(c2cccnc2)CC1)N1Cc2cccn2Cc2ccccc21 [Example 146] | 31.6
O=C(C1CCN(c2ccncc2)CC1)N1Cc2cccn2Cc2ccccc21 [Example 147] | 1480
O=C(C1CCN(c2cnccn2)CC1)N1Cc2cccn2Cc2ccccc21 [Example 148] | 28.2
